Legend:
[1] = biological target: T1, hTLR9 (Homo sapiens, UniProt Q9NR96); assay: HEK293-Blue-hTLR-9 cells assay; assay type: cell-based; design: host or cells: HEK293-Blue-hTLR-9 (HEK293); conditions: HEK293-Blue-hTLR9 cells, ODN2006 stimulation, 20 hrs, SEAP reporter; read-out: HEK/hTLR9 IC50
T1 sequence (Q9NR96 26-1032): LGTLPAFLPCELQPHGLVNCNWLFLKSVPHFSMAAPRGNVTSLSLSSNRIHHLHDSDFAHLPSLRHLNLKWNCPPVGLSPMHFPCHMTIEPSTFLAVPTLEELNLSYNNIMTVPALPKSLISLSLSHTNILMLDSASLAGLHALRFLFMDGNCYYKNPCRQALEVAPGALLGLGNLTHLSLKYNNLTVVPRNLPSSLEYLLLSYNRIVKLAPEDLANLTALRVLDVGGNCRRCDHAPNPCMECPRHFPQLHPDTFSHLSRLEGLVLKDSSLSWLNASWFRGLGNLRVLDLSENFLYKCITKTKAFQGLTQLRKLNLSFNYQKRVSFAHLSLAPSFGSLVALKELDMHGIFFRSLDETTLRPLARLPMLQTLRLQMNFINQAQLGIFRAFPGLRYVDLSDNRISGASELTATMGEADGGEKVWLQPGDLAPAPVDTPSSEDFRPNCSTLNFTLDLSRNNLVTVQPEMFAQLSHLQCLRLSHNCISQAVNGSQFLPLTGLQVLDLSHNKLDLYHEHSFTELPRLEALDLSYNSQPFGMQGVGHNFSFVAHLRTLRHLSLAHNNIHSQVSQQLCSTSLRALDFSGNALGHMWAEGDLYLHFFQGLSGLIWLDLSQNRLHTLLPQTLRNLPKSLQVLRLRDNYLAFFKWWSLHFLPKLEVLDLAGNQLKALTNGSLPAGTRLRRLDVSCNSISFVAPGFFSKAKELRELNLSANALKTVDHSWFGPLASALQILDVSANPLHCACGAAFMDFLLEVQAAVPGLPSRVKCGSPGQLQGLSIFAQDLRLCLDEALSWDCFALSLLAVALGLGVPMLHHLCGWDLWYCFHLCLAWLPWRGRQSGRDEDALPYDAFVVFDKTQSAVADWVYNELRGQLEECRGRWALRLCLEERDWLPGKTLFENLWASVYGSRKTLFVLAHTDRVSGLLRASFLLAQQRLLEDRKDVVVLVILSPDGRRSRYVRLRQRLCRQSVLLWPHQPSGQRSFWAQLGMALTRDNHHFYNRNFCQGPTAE
Protocol: The following tests were carried out in order to determine the activity of the compounds of formula (I) and (Ia) in HEK293-Blue-hTLR-7/8/9 cells assay.
HEK293-Blue-hTLR-9 cells assay:
A stable HEK293-Blue-hTLR-9 cell line was purchased from InvivoGen (Cat. #: hkb-htlr9, San Diego, Calif., USA). These cells were originally designed for studying the stimulation of human TLR9 by monitoring the activation of NE-KB. A SEAP (secreted embryonic alkaline phosphatase) reporter gene was placed under the control of the IFN-β minimal promoter fused to five NE-κB and AP-1-binding sites. The SEAP was induced by activating NE-κB and AP-1 via stimulating HEK-Blue hTLR9 cells with TLR9 ligands. Therefore the reporter expression was declined by TLR9 antagonist under the stimulation of a ligand, such as ODN2006 (Cat. #: tlrl-2006-1, Invivogen, San Diego, Calif., USA), for incubation of 20 hrs. The cell culture supernatant SEAP reporter activity was determined using QUANTI-Blue™ kit (Cat. #: rep-qb1, Invivogen, San Diego, Calif., USA) at a wavelength of 640 nm, a detection medium that turns purple or blue in the presence of alkaline phosphatase.
HEK293-Blue-hTLR9 cells were incubated at a density of 250,000˜450,000 cells/mL in a volume of 170 μL in a 96-well plate in Dulbecco's Modified Eagle's medium (DMEM) containing 4.5 g/L glucose, 50 U/mL penicillin, […], […], 2 mM L-glutamine, 10% (v/v) heat-inactivated fetal bovine serum with addition of 20 μL test compound in a serial dilution in the presence of final DMSO at 1% and 10 μL of 20 uM ODN2006 in above DMEM, perform incubation under 37° C. in a CO2 incubator for 20 hrs. Then 20 μL of the supernatant from each well was incubated with 180 μL Quanti-blue substrate solution at 37° C. for 2 h and the absorbance was read at 620˜655 nm using a spectrophotometer. The signaling pathway that TLR9 activation leads to downstream NE-κB activation has been widely accepted, and therefore similar reporter assay was modified for evaluating TLR9 antagonist.

[2] = biological target: T2, CYP2D6 (Homo sapiens, UniProt P10635); assay: CYP inhibition assay in human liver microsome; assay type: in vitro ADME; conditions: human liver microsomes, probe dextromethorphan, dextromethorphan substrate, percentage inhibition <0: not or weak inhibitor, read-out: CYP 2D6 inhibition %@10 μM
T2 construct: tissue BD-Gentest 452117; host or cells: human liver microsomes
Protocol: The compounds would be desirable to have minimal DDI liabilities. Therefore, the effects of compounds of formula (I) or (Ia) on CYP2D6 are determined.
This is a high throughput screening assay used for assessment of reversible inhibition of CYP2D6 activity of test compounds in human liver microsome (HLM) in early discovery stage.
10 mM DMSO stock solutions of test compounds were diluted in DMSO to generate 2 mM intermediate stock solution. 250 nL of intermediate stock solution were transferred in duplicate into 3 separate 384 well microtitre plates (assay-ready plates). A mixture of HLM and each substrate was made up. 45 μL of HLM substrate mix was then transferred to each well of an assay ready plate and mixed. The negative (solvent) and positive control (standard inhibitor for CYP 2D6) were included in each assay ready plate. The assay ready plate was warmed to 37° C. in an incubator over 10 minutes. 5 μL pre-warmed NADPH regenerating system was added to each incubation well to start the reaction. Final incubation volume was 50 μL. The assay plate then was placed back in the 37° C. incubator. After 10 minutes incubation, incubates were quenched by addition of 50 μL 100% acetonitrile containing internal standards (20 ng/mL D3-Dextrorphan). The supernatants were collected for RapidFire/MS/MS analysis.
RapidFire online solid phase extraction/sample injection system (Agilent) coupled with API4000 triple quadrupole mass spectrometer (AB Sciex) were used for sample analysis. The mobile phase composed of acetonitrile and water supplemented with 0.1% formic acid. A C4 solid phase extraction cartridge is used for sample separation. MS detection is achieved in positive ion MRM mode.
Data analysis Peak areas for substrate, metabolite and internal standard are determined using the RapidFire integrator software (version 3.6.12009.12296). Peak area ratios (PAR) of metabolite and internal standard (stable-labelled metabolite) are then calculated. The measurement window for each experiment is then defined:
PAR (0% activity), average PAR for all incubations containing concentrated inhibitor; Par (100% activity), average PAR for all incubations containing no inhibitor (DMSO controls);
% Activity (test inhibitor)=
=[PAR(test inhibitor)-PAR(0% activity)]/[PAR(100% activity)-PAR(0% activity)];
% Inhibition (test inhibitor)=100-% Activity (test inhibitor).

T2 sequence (P10635 whole entry): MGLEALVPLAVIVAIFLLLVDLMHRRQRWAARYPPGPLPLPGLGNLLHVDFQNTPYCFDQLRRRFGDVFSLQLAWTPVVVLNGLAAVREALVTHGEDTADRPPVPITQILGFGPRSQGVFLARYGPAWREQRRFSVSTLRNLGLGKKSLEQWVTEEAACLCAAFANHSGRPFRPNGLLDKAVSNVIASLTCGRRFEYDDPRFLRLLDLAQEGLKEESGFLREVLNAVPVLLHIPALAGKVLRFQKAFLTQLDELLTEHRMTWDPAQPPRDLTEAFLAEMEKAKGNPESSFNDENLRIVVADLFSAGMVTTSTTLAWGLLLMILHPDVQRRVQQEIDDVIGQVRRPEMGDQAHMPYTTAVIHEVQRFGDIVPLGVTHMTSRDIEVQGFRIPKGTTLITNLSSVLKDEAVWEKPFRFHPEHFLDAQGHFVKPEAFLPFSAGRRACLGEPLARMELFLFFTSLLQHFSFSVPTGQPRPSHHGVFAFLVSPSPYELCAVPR

| Compound | IC50 [1] [µM] | inhibition at 10 min, 10 μM [2] [%] |
| --- | --- | --- |
| Cc1cc(N2CCOC3CN(CC4CN(c5ccc(C#N)c6ncccc56)CC(C)O4)CC32)cc(C)n1 (single isomer, unassigned) [Example 17A] | 0.154 | – |
| C[C@@H]1CN(c2ccc(C#N)c3ncccc23)C[C@H](CN2CC3(C2)CN(c2ccnc(C4CC4)c2)CCO3)O1 [Example 3, 5-[(2S,6R)-2-[[8-(2-cyclopropyl-4-pyridyl)-5-oxa-2,8-diazaspiro[3.5]nonan-2-yl]methyl]-6-methyl-morpholin-4-yl]quinoline-8-carbonitrile] | 0.048 | 6 |
| Cc1cc(N2CCN(C[C@H]3CN(c4ccc(C#N)c5ncccc45)C[C@@H](C)O3)[C@H](C)C2)cc(CO)n1 [Example 4B] | 0.145 | – |
| Cc1cc(NC2CCN(C[C@H]3CN(c4ccc(C#N)c5ncccc45)C[C@@H](C)O3)CC2)cc(CO)n1 [Example 5] | 0.032 | 7.5 |
| Cc1cc(NC2CCN(C[C@H]3CN(c4ccc(C#N)c5ncccc45)C[C@@H](C)O3)C2)cc(CO)n1 (some centres unmarked) [Example 6] | 0.041 | 8 |
| Cc1cc(N2CCC3(CN(C[C@H]4CN(c5ccc(C#N)c6ncccc56)C[C@@H](C)O4)C3)C2)cc(C)n1 [Example 9] | 0.032 | -5 |
| Cc1cc(N2C[C@H]3CN(C[C@H]4CN(c5ccc(C#N)c6ncccc56)C[C@@H](C)O4)C[C@H]3C2)cc(CO)n1 [Example 10] | < 0.032 | 3.5 |
| Cc1cc(N(C)C2CN(C[C@H]3CN(c4ccc(C#N)c5ncccc45)C[C@@H](C)O3)C2)cc(C)n1 [Example 11] | 0.04 | -7.5 |
| C[C@@H]1CN(c2ccc(C#N)c3ncccc23)C[C@H](CN2CCN(c3ccnc(N)c3)CC2)O1 [Example 19, 5-[(2S,6R)-2-[[4-(2-amino-4-pyridyl)piperazin-1-yl]methyl]-6-methyl-morpholin-4-yl]quinoline-8-carbonitrile] | 0.062 | – |
| C[C@@H]1CN(c2ccc(C#N)c3ncccc23)C[C@H](CNC2CCN(c3ccnc(N)c3)CC2)O1 [Example 20, 5-[(2S,6R)-2-[[[1-(2-amino-4-pyridyl)-4-piperidyl]amino]methyl]-6-methyl-morpholin-4-yl]quinoline-8-carbonitrile] | 0.036 | – |
| Cc1cc(N2CC[C@@H](NC[C@H]3CN(c4ccc(C#N)c5ncccc45)C[C@@H](C)O3)C2)cc(CO)n1 [Example 28] | 0.057 | – |
| Cc1cc(N2CC[C@H](NC[C@H]3CN(c4ccc(C#N)c5ncccc45)C[C@@H](C)O3)C2)cc(CO)n1 [Example 29] | 0.059 | – |
| Cc1cc(N2CC[C@H](F)[C@H](NC[C@H]3CN(c4ccc(C#N)c5ncccc45)C[C@@H](C)O3)C2)cc(CO)n1 [Example 33] | 0.122 | – |
| Cc1cc(N2CC[C@@H](F)[C@H](NC[C@H]3CN(c4ccc(C#N)c5ncccc45)C[C@@H](C)O3)C2)cc(CO)n1 [Example 34] | 0.155 | – |

Second part, the compound after the results:

| IC50 [1] [µM] | inhibition at 10 min, 10 μM [2] [%] | Compound |
| --- | --- | --- |
| < 0.032 | 5 | Cc1cc(N2CCOC3CN(CC4CN(c5ccc(C#N)c6ncccc56)CC(C)O4)CC32)cc(C)n1 (single isomer, unassigned) [Example 17B] |
| 0.034 | 6 | Cc1cc(N2CC3(CN(C[C@H]4CN(c5ccc(C#N)c6ncccc56)C[C@@H](C)O4)C3)C2)cc(CO)n1 [Example 1, 5-[(2S,6R)-2-[[2-[2-(hydroxymethyl)-6-methyl-4-pyridyl]-2,6-diazaspiro[3.3]heptan-6-yl]methyl]-6-methyl-morpholin-4-yl]quinoline-8-carbonitrile] |
| 0.148 | – | Cc1cc(N2CCN(C[C@H]3CN(c4ccc(C#N)c5ncccc45)C[C@@H](C)O3)[C@@H](C)C2)cc(CO)n1 [Example 4A] |
| 0.039 | -21.5 | Cc1cc(NC2CN(C[C@H]3CN(c4ccc(C#N)c5ncccc45)C[C@@H](C)O3)C2)cc(C)n1 [Example 7] |
| < 0.032 | – | Cc1cc(N2CCC23CN(C[C@H]2CN(c4ccc(C#N)c5ncccc45)C[C@@H](C)O2)C3)cc(C)n1 [Example 8] |
| 0.049 | -3 | Cc1cc(N2CCC23CN(C[C@H]2CN(c4ccc(C#N)c5ncccc45)C[C@@H](C)O2)C3)cc(CO)n1 [Example 12] |
| < 0.032 | – | Cc1cc(N2CCC(NC[C@H]3CN(c4ccc(C#N)c5ncccc45)C[C@@H](C)O3)CC2)cc(CO)n1 [Example 23] |
| 0.215 | – | Cc1cc(N2CC(NC[C@H]3CN(c4ccc(C#N)c5ncccc45)C[C@@H](C)O3)CC(F)(F)C2)cc(CO)n1 (some centres unmarked) [Example 36] |
| 0.16 | – | Cc1cc(N2CC(N(C)C[C@H]3CN(c4ccc(C#N)c5ncccc45)C[C@@H](C)O3)C2)cc(CO)n1 [Example 37] |
| 0.148 | – | C[C@@H]1CN(c2ccc(C#N)c3ncccc23)C[C@H](CN2CC3(C2)CN(c2ccnc(C(C)(C)O)c2)C3)O1 [Example 48, 5-[(2S,6R)-2[[2-[2-(1-hydroxy-1-methyl-ethyl)-4-pyridyl]-2,6-diazaspiro[3.3]heptan-6-yl]methyl]-6-methyl-morpholin-4-yl]quinoline-8-carbonitrile] |
| 0.034 | – | C[C@@H]1CN(c2ccc(C#N)c3ncccc23)C[C@H](CN2CC3(C2)CN(c2ccnc(C4CC4)c2)C3)O1 [Example 49, 5-[(2S,6R)-2[[2-(2-cyclopropyl-4-pyridyl)-2,6-diazaspiro[3.3]heptan-6-yl]methyl]-6-methyl-morpholin-4-yl]quinoline-8-carbonitrile] |
